pIC50: −log10 of the molar value.
What was measured:
KDM6B = biological target: T1, KDM6B (Homo sapiens, UniProt O15054); assay: Histone lysine demethylase immunofluorescence assay, U2OS cells transfected with KDM6B; assay type: cell-based; conditions: U2OS cells transfected with pCMVHA KDM6B; mark detected H3K27me2; 20 hours
T1 construct: (a.a. 1026-1682); host or cells: U2OS
Experimental: (§1) U2OS cells were seeded 24 hours before transfection. Transfection was performed with Fugene HD transfection reagent as recommended by the manufacturer. 6 hours after transfection, the cells were harvested and seeded into multi well plates into media containing compound. The media used was DMEM containing 10% FBS and pen/strep. 20 hours after incubation of cells with compounds, the cells were washed in PBS, harvested by fixation with formaldehyde 4% aqueous solution, and washed in PBS. Subsequently, the cells were permeabilized in PBS with 0.2% Triton X-100 for. Blocking was performed in PBS with 0.2% Triton X-100 and 5% FBS. The cells were incubated with primary antibodies in blocking solution over night at 4° C. The primary antibodies used in the assays were HA.11 (Covance, MMS-101P) and the antibody detecting the mark specified in the table below. After incubation with primary antibodies, the cells were washed with PBS, incubated with secondary antibodies (Alexa fluor 594 goat anti rabbit IgG, Invitrogen, A11012; Alexa flour 488 donkey anti mouse IgG, Invitrogen, A21202) and Hoechst, (Sigma, 33342) in blocking solution, and washed again with PBS. Finally, PBS was added and high throughput imaging and analysis were performed by an IN Cell Analyzer 1000 (GE Healthcare). The robot software analyzed individual cells and divided these into HA+ (transfected cells) and HA− (non-transfected cells). The IC50 values were based on an average measure of the staining of the mark specified in the table below in the transfected cells.

KDM4A = biological target: T2, KDM4A (Homo sapiens, UniProt O75164); assay: Histone lysine demethylase immunofluorescence assay, U2OS cells transfected with KDM4A; assay type: cell-based; conditions: U2OS cells transfected with pCMVHA KDM4A; mark detected H3K9me3; 20 hours
T2 construct: Full length; host or cells: U2OS
T2 sequence (O75164 1-1064): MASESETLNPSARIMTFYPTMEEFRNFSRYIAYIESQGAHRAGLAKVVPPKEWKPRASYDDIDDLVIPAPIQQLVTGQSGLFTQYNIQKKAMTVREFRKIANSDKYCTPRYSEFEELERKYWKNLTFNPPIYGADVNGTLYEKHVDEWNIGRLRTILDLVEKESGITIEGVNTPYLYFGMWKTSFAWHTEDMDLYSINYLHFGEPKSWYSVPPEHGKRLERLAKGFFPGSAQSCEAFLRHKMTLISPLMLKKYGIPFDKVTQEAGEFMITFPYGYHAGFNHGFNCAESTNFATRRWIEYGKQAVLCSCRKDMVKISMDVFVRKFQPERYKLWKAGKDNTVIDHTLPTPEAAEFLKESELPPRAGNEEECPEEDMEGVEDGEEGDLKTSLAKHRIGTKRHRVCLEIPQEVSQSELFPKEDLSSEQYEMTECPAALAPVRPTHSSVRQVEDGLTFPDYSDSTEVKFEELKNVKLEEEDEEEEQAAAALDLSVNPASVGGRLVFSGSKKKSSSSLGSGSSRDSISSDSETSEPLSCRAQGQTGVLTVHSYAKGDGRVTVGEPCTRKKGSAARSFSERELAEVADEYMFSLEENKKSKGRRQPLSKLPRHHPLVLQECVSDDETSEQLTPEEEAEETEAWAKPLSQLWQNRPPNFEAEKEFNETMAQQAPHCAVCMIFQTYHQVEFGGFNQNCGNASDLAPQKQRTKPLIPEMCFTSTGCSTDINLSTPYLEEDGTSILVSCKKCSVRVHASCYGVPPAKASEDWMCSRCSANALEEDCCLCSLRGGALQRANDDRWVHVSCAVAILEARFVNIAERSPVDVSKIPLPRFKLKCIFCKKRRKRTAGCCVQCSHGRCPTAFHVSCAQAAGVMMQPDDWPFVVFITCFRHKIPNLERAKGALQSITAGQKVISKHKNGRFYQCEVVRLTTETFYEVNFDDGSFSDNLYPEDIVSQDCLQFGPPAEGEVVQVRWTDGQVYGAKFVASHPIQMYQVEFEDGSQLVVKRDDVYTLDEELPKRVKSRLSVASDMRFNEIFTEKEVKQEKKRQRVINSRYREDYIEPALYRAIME
Experimental: as §1

T1 sequence (O15054 1026-1682 isoform O15054-1): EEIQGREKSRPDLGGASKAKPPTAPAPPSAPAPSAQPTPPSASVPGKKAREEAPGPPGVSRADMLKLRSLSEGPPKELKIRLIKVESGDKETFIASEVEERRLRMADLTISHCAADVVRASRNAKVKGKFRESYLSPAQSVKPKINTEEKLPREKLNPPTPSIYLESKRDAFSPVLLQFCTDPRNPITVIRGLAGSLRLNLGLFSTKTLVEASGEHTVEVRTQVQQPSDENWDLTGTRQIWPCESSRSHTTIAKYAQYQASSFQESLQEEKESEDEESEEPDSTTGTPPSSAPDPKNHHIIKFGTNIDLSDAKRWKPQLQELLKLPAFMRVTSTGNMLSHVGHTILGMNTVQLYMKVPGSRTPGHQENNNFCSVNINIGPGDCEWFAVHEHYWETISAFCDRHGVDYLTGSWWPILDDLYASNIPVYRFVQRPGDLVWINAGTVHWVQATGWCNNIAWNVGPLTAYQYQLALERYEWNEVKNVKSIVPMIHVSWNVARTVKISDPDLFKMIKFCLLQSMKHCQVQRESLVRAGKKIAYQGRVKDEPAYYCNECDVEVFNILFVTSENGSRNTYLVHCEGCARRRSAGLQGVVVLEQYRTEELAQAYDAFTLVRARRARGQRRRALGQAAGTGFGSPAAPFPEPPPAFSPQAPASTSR

CCN(CCN(C)C)C(=O)CNCc1cc(CN)ccn1 [Compound 4, 2-({[4-(aminomethyl)pyridin-2-yl]methyl}amino)-N-[2-(dimethylamino)ethyl]-N-ethylacetamide]
pIC50 (KDM6B): < 5.60

COc1ccccc1CN1CCC(NC(=O)CNCc2cc(CN)ccn2)CC1 [Compound 9, 2-({[4-(aminomethyl)pyridin-2-yl]methyl}amino)-N-{1-[(2-methoxyphenyl)methyl]-piperidin-4-yl}acetamide]
pIC50 (KDM4A): < 5.60

CN(C)C(=O)CNCc1cc(CNCC#N)ccn1 [Compound 13, 2-{[(4-{[(cyanomethyl)amino]-methyl}pyridin-2-yl)methyl]amino}-N,N-dimethylacetamide]
pIC50 (KDM4A): 5.60 to 6.60

CN(C)CCNCc1ccnc(CNCC(=O)N(C)C)c1 [Compound 15, 2-({[4-({[2-(dimethylamino)ethyl]-amino}methyl)pyridin-2-yl]methyl}amino)-N,N-dimethylacetamide]
pIC50 (KDM4A): < 5.60

CNC(C#N)c1ccnc(CNCCCN(C)C)c1 (centres unmarked) [Compound 24, 2-[2-({[3-(dimethylamino)propyl]-amino}methyl)pyridin-4-yl]-2-(methylamino)-acetonitrile]
pIC50 (KDM6B): < 5.60

CN(C)C(=O)CNCc1cc(/C=N/CCC2CCCCC2)ccn1 [Compound 36, 2-[({4-[[(2-cyclohexylethyl)imino]-methyl]pyridin-2-yl}methyl)amino]-N,N-dimethylacetamide]
pIC50 (KDM4A): < 5.60

CN(CCCNCc1cc(/C=N/C2CC2)ccn1)Cc1ccccc1 [Compound 41, N-({2-[({3-[benzyl(methyl)amino]-propyl}amino)methyl]-pyridin-4-yl}methylidene)-cyclopropanamine]
pIC50 (KDM4A): < 5.60

C(=N/C1CC1)/c1ccnc(CNCCCN2CCCC2)c1 [Compound 42, N-{[2-({[3-(pyrrolidin-1-yl)propyl]amino}-methyl)pyridin-4-yl]methylidene}-cyclopropanamine]
pIC50 (KDM4A): < 5.60
pIC50 (KDM6B): < 5.60

CN(C)CC1CCC(CNCc2cc(/C=N/C3CC3)ccn2)CC1 (centres unmarked) [Compound 46, N-[(2-{[({4-[(dimethylamino)-methyl]cyclohexyl}-methyl)amino]-methyl}pyridin-4-yl)methylidene]-cyclopropanamine]
pIC50 (KDM4A): > 6.60

O=C(CNCc1cc(/C=N/C2CC2)ccn1)NC1CCN(Cc2ccccc2)C1 (centres unmarked) [Compound 53, N-(1-benzylpyrrolidin-3-yl)-2-[({4-[N-cyclopropyl-carboximidoyl]pyridin-2-yl}methyl)amino]-acetamide]
pIC50 (KDM4A): < 5.60

CCN(CC)CCCCNCc1cc(/C=N/CCOC)ccn1 [Compound 60, [4-(diethylamino)butyl]-({4-[[(2-methoxyethyl)imino]-methyl]pyridin-2-yl}methyl)amine]
pIC50 (KDM4A): 5.60 to 6.60

CCN(CCN(C)C)C(=O)CNCc1cc(C2OCC(Cc3ccccc3)CN2C(=O)C(F)(F)F)ccn1 (centres unmarked) [Compound 90, 2-[({4-[5-benzyl-3-(trifluoroacetyl)-1,3-oxazinan-2-yl]pyridin-2-yl}methyl)amino]-N-[2-(dimethylamino)-ethyl]-N-ethylacetamide]
pIC50 (KDM4A): > 6.60
pIC50 (KDM6B): < 5.60

CN(C)C/C=C/CNCc1cc(C=O)ccn1 [Compound 98, 2-({[(2E)-4-(dimethylamino)but-2-en-1-yl]amino}-methyl)pyridine-4-carbaldehyde]
pIC50 (KDM4A): > 6.60

CCN(CCN(C)C)C(=O)CNCc1cc(C=O)ccn1 [Compound 101]
pIC50 (KDM4A): 5.60 to 6.60
pIC50 (KDM6B): < 5.60

O=Cc1ccnc(CNCC(=O)N2CCC[C@@H]2CN2CCCC2)c1 [Compound 102, 2-[({2-oxo-2-[(2R)-2-(pyrrolidin-1-ylmethyl)pyrrolidin-1-yl]ethyl}amino)-methyl]pyridine-4-carbaldehyde]
pIC50 (KDM4A): 5.60 to 6.60

CCN(CC)CCCCNCc1cc(C=O)ccn1 [Compound 107, 2-({[4-(diethylamino)-butyl]amino}-methyl)pyridine-4-carbaldehyde]
pIC50 (KDM6B): < 5.60

O=Cc1ccnc(CNCCCN2CCCC2)c1 [Compound 111, 2-({[3-(pyrrolidin-1-yl)propyl]amino}-methyl)pyridine-4-carbaldehyde]
pIC50 (KDM4A): < 5.60

Reference: patent US9650339B2, “Inhibitors of histone demethylases” (Gilead Sciences, Inc., priority 2013, dated 2017)
